Holding throughout (assay): DTP human tumour cell line panel, 48 h
For experiment [1], the system named is U251 CNS.
In experiment [2] the test system is TK-10 renal.
The test system of experiment [3] is K-562 leukemia.
The subject of experiment [4] is HT29 colon.
The subject of experiment [5] is A498 renal.
Experiment [6] concerns T-47D breast.
The test system of experiment [7] is UACC-257 melanoma.

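96-well plates; 48 h exposure; 5 concentrations. Endpoints by linear interpolation between flanking doses. Not reached: highest tested concentration assigned. The concentration for 50% growth inhibition is given as GI50. TGI marks complete inhibition of growth.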 Bounds are passed on as bounds.

As to `C=CCOc1c(Br)cc(Br)cc1Br`, the GI50 in experiment [1] is 8.28 µM; in experiment [2], > 100 µM; in experiment [3], 7.92 µM; in experiment [4], 33 µM; in experiment [5], 8.49 µM; in experiment [6], 31.4 µM. For the same compound, in experiment [7], the GI50 was 57.6 µM. The TGI in experiment [1], in experiment [2], in experiment [3], in experiment [4], in experiment [5] and in experiment [6] was > 100 µM throughout. In addition, the concentration for total growth inhibition (TGI) in experiment [7] was > 100 µM.
For `Oc1ccc(Cc2ccccc2)c2cccnc12`, the GI50 is 0.999 µM in experiment [1]; 2.81 µM in experiment [2]; 0.836 µM in experiment [3]; 22.5 µM in experiment [4]; 25.6 µM in experiment [5]; 3.6 µM in experiment [6]. Moreover, the GI50 in experiment [7] is 4.06 µM. In addition, the TGI is 37.7 µM in experiment [1]; > 100 µM in experiment [2]; > 100 µM in experiment [3]; > 100 µM in experiment [4]; > 100 µM in experiment [5]; > 100 µM in experiment [6]. Also, the TGI in experiment [7] was > 100 µM.
`O=C(N/N=C/c1ccc(Cl)cc1Cl)c1ccccc1Nc1cccc(C(F)(F)F)c1`: the GI50 was 3.07 µM in experiment [1]; 2.84 µM in experiment [2]; 4.86 µM in experiment [3]; 14.4 µM in experiment [4]; 14.9 µM in experiment [5]; 2.2 µM in experiment [6]. Besides, the GI50 in experiment [7] was 4.27 µM. Further, the TGI is 9.64 µM in experiment [1]; 9.22 µM in experiment [2]; > 100 µM in experiment [3]; > 100 µM in experiment [4]; 52.4 µM in experiment [5]; 6.9 µM in experiment [6]. Moreover, in experiment [7], the TGI is 25.4 µM.
As to `CNc1nc(NC2CCCC2)nc(Sc2ccc(OC)cc2)n1`, the GI50 in experiment [1], in experiment [2], in experiment [3], in experiment [4], in experiment [5] and in experiment [6] was > 10 µM each time. The GI50 in experiment [7] is > 10 µM. The TGI in experiment [1], in experiment [2], in experiment [3], in experiment [4], in experiment [5] and in experiment [6] was > 10 µM each time. In addition, the TGI in experiment [7] is > 10 µM.
Regarding `Cc1noc(C)c1-c1ccc2[nH]c(=O)n3c2c1OC[C@@H]3c1ccccn1`, the GI50 in experiment [1] was 30.9 µM; in experiment [2] it was 0.312 µM; in experiment [3] it was 0.959 µM; in experiment [4], 0.415 µM; in experiment [6] it was 0.585 µM; in experiment [7], 3.92 µM. For the same compound, the TGI was > 100 µM in experiment [1]; > 100 µM in experiment [2]; > 100 µM in experiment [3]; > 100 µM in experiment [4]; 6.25 µM in experiment [5]; > 100 µM in experiment [6]. The TGI in experiment [7] was > 100 µM.
For `COc1cc(/C=C2\CC3C4CC=C5CC(N6CCCC6)CC[C@]5(C)C4CC[C@]3(C)C2OC(C)=O)ccc1OCCN1CCCC1` (stereo partly specified), the GI50 in experiment [1] is 1.81 µM; in experiment [2], 14.9 µM; in experiment [3], 1.04 µM; in experiment [4] it was 1.82 µM; in experiment [5] it was 1.52 µM; in experiment [6] it was 16.8 µM. For the same compound, in experiment [7], the GI50 was 1.95 µM. Also, the TGI was determined as 3.73 µM in experiment [1]; 29.2 µM in experiment [2]; 3.19 µM in experiment [3]; 4.39 µM in experiment [4]; 3.26 µM in experiment [5]; 34.5 µM in experiment [6]. The TGI in experiment [7] came out at 3.53 µM.
Consider `CN1CCN(Cc2ccc(NC(=O)c3ccc(C(C)(C)C)c(C#Cc4cnc5cccnn45)c3)cc2C(F)(F)F)CC1`, for which the GI50 in experiment [1] was 1.97 µM; in experiment [2], 2.62 µM; in experiment [3] it was 0.932 µM; in experiment [4], 1.68 µM; in experiment [5], 7.18 µM; in experiment [6], 2.02 µM. Besides, in experiment [7], the GI50 is 1.89 µM. The TGI in experiment [1] is 3.62 µM; in experiment [2], 7.02 µM; in experiment [3] it was 2.6 µM; in experiment [4], 3.4 µM; in experiment [5], 23.4 µM; in experiment [6], 5.41 µM. In experiment [7], this compound gave a TGI of 3.68 µM.
For the compound `COc1cc2c3c(n(CCCN4CCC(N)CC4)c(=O)c2cc1OC)-c1cc2c(cc1C3=O)OCO2`, the GI50 is 0.307 µM in experiment [1]; 0.774 µM in experiment [2]; 0.587 µM in experiment [3]; 0.621 µM in experiment [4]; 3.03 µM in experiment [5]; 1.06 µM in experiment [6]. The GI50 in experiment [7] is 7.9 µM. Also, the TGI in experiment [1] came out at 0.945 µM; in experiment [2], 4.36 µM; in experiment [3], 6.91 µM; in experiment [4], 9.81 µM; in experiment [5], 10.8 µM; in experiment [6], 4 µM. This compound returned a TGI in experiment [7] of 17.9 µM.

In general, GI50 refers to the concentration at which growth is held to half of that of the control. For orientation: TGI means the concentration giving total growth inhibition. High values mean lower sensitivity of the cells, low ones greater sensitivity of the cells.

These data come from PubChem BioAssay (NCI).
